The data set in a line: Appearance of the composition and solubilization of the drug. In kind it is physicochemical. How it is done: Following here is an exemplary description of the manufacturing process used to make the pharmaceutical compositions of the present invention. Generally, the active agent is introduced either alone or as a solution in a colloidal dispersion of carbomer. […] If desired, further ingredients such as cosolvents, buffering agents, antioxidants, preservatives, permeation enhancers, etc, as mentioned herein above were added under mechanical stirring.

Experimental findings from US20080138391A1, “SKIN-FRIENDLY DRUG COMPLEXES FOR TRANSDERMAL ADMINISTRATION” (priority 2006, published 2008) are described below.

Take `CCCN(CCC)CCc1cccc2c1CC(=O)N2` [ropinirole free base, ropinirole]: the “Amount of ropinirole free base solubilized in water as a result of complexation with carbomer” value (complexation with carbomer, alcohol-free) is “at least 3.00 % w/w”. For the setting “no complexation”, the “Solubility of ropinirole free base in water” value is “practically insoluble in water”.
